Assays:
[1] = target: Serine/threonine-protein kinase B-raf (Homo sapiens) (UniProt P15056); conditions: Compound concentration 1000.0 nM
[2] = target: cAMP-dependent protein kinase catalytic subunit alpha (Homo sapiens) (UniProt P17612); conditions: Compound concentration 1000.0 nM
[3] = target: Tyrosine-protein kinase Tec (Homo sapiens) (UniProt P42680); conditions: Compound concentration 1000.0 nM
[4] = target: Tyrosine-protein kinase JAK2 (Homo sapiens) (UniProt O60674); conditions: Compound concentration 1000.0 nM
[5] = target: Phosphatidylinositol 4-phosphate 5-kinase type-1 alpha (Homo sapiens) (UniProt Q99755); conditions: Compound concentration 1000.0 nM
[6] = target: Serine/threonine-protein kinase 4 (Homo sapiens) (UniProt Q13043); conditions: Compound concentration 1000.0 nM
[7] = system: Epidermal growth factor receptor (Homo sapiens), P00533 [UNDEFINED MUTATION]; conditions: Compound concentration 1000.0 nM
[8] = target: Serine/threonine-protein kinase LATS2 (Homo sapiens) (UniProt Q9NRM7); conditions: Compound concentration 1000.0 nM
[9] = target: Mitogen-activated protein kinase 14 (Homo sapiens) (UniProt Q16539); conditions: Compound concentration 1000.0 nM
[10] = target: SRSF protein kinase 1 (Homo sapiens) (UniProt Q96SB4); conditions: Compound concentration 1000.0 nM
[11] = target: Serine/threonine-protein kinase Nek4 (Homo sapiens) (UniProt P51957); conditions: Compound concentration 1000.0 nM
[12] = target: Calcium/calmodulin-dependent protein kinase type 1 (Homo sapiens) (UniProt Q14012); conditions: Compound concentration 1000.0 nM
[13] = target: Muscle, skeletal receptor tyrosine-protein kinase (Homo sapiens) (UniProt O15146); conditions: Compound concentration 1000.0 nM
[14] = target: Fibroblast growth factor receptor 3 (Homo sapiens) (UniProt P22607); conditions: Compound concentration 1000.0 nM
[15] = target: Serine/threonine-protein kinase Sgk1 (Homo sapiens) (UniProt O00141); conditions: Compound concentration 1000.0 nM
[16] = target: T1, Protein kinase C epsilon type (Homo sapiens) (UniProt Q02156); conditions: Compound concentration 1000.0 nM
T1 sequence (whole entry): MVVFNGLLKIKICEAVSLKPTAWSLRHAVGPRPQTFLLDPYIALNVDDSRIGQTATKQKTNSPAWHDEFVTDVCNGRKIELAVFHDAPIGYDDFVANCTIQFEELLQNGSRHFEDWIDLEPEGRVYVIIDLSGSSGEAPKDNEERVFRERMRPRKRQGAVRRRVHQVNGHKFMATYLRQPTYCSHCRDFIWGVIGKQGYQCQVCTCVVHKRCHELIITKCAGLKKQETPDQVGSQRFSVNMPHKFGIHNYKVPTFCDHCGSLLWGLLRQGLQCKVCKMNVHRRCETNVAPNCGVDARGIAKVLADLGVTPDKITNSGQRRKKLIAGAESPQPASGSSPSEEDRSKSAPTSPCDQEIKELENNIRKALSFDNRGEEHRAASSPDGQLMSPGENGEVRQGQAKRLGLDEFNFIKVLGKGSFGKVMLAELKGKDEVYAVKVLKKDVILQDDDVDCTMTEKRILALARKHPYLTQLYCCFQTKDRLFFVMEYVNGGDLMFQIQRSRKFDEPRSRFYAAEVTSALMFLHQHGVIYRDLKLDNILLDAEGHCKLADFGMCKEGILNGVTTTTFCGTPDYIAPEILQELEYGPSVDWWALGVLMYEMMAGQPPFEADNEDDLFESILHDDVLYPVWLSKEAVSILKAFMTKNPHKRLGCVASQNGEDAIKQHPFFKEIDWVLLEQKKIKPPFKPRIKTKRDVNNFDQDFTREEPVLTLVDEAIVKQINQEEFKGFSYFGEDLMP

[17] = target: Serine/threonine-protein kinase PAK 1 (Homo sapiens) (UniProt Q13153); conditions: Compound concentration 1000.0 nM
[18] = target: Wee1-like protein kinase (Homo sapiens) (UniProt P30291); conditions: Compound concentration 1000.0 nM
[19] = target: Phosphatidylinositol 4-phosphate 3-kinase C2 domain-containing subunit beta (Homo sapiens) (UniProt O00750); conditions: Compound concentration 1000.0 nM
[20] = target: Tyrosine-protein kinase ABL1 (Homo sapiens) (UniProt P00519); conditions: Compound concentration 1000.0 nM
[21] = target: Bone morphogenetic protein receptor type-2 (Homo sapiens) (UniProt Q13873); conditions: Compound concentration 1000.0 nM
[22] = target: Phosphatidylinositol 5-phosphate 4-kinase type-2 gamma (Homo sapiens) (UniProt Q8TBX8); conditions: Compound concentration 1000.0 nM
[23] = target: Cyclin-dependent kinase 17 (Homo sapiens) (UniProt Q00537); conditions: Compound concentration 1000.0 nM
[24] = target: cGMP-dependent protein kinase 2 (Homo sapiens) (UniProt Q13237); conditions: Compound concentration 1000.0 nM
[25] = target: Cyclin-dependent kinase 14 (Homo sapiens) (UniProt O94921); conditions: Compound concentration 1000.0 nM
[26] = target: Leukocyte tyrosine kinase receptor (Homo sapiens) (UniProt P29376); conditions: Compound concentration 1000.0 nM
[27] = system: Receptor-type tyrosine-protein kinase FLT3 (Homo sapiens), P36888 [UNDEFINED MUTATION]; conditions: Compound concentration 1000.0 nM
[28] = target: Sodium-dependent serotonin transporter (Homo sapiens, UniProt P31645); conditions: Compound concentration 10.0 uM
[29] = target: T2, Alpha-1A adrenergic receptor (Homo sapiens) (UniProt P35348); conditions: Compound concentration 10.0 uM
T2 sequence (whole entry): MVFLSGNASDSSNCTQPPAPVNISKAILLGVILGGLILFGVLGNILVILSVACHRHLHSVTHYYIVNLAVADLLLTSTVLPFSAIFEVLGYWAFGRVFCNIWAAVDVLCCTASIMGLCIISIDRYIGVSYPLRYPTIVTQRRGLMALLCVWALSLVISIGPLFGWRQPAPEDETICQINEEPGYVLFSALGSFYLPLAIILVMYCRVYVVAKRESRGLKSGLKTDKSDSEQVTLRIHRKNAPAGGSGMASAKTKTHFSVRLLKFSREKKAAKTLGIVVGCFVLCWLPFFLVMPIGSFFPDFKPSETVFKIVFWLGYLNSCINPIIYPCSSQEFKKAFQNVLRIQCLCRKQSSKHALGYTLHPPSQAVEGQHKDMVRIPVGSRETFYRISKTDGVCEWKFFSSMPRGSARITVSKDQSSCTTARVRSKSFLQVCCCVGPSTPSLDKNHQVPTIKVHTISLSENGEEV

Sequence of Cyclin-dependent kinase 17 (Homo sapiens) (Q00537 whole entry, looked up): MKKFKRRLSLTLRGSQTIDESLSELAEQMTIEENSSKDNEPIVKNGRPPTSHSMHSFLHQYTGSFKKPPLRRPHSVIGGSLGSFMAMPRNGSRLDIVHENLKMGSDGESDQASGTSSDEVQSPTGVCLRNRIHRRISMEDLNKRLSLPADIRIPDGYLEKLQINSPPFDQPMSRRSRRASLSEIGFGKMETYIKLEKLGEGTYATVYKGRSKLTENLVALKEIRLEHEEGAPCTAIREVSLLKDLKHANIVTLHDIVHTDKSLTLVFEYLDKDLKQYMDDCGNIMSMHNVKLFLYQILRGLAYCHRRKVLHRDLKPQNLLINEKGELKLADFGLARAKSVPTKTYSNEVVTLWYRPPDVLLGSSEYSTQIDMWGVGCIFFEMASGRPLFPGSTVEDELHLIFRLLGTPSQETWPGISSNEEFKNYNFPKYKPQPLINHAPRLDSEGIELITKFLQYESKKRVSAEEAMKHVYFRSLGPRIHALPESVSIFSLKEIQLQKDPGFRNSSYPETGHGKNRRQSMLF
Sequence of cGMP-dependent protein kinase 2 (Homo sapiens) (Q13237 whole entry): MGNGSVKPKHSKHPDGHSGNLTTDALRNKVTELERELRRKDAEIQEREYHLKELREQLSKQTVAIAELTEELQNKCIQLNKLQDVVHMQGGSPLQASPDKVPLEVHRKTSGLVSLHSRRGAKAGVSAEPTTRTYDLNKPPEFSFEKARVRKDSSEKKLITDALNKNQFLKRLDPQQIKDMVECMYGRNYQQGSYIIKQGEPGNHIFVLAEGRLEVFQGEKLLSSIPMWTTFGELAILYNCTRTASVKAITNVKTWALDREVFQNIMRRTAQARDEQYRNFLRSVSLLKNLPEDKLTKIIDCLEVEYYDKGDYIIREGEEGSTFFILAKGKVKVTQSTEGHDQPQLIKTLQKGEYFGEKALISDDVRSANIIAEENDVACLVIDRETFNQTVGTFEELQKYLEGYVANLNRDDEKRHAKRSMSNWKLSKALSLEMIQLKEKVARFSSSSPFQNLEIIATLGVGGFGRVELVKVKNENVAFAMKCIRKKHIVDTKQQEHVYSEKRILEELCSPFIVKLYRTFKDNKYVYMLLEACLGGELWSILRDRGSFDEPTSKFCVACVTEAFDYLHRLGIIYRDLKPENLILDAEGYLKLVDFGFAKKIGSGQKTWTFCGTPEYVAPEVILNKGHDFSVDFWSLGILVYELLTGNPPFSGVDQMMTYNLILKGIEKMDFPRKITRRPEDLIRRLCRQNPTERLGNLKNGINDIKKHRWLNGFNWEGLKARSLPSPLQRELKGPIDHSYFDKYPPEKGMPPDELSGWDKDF
Sequence of Phosphatidylinositol 4-phosphate 3-kinase C2 domain-containing subunit beta (Homo sapiens) (O00750 whole entry, the tested form may be a part): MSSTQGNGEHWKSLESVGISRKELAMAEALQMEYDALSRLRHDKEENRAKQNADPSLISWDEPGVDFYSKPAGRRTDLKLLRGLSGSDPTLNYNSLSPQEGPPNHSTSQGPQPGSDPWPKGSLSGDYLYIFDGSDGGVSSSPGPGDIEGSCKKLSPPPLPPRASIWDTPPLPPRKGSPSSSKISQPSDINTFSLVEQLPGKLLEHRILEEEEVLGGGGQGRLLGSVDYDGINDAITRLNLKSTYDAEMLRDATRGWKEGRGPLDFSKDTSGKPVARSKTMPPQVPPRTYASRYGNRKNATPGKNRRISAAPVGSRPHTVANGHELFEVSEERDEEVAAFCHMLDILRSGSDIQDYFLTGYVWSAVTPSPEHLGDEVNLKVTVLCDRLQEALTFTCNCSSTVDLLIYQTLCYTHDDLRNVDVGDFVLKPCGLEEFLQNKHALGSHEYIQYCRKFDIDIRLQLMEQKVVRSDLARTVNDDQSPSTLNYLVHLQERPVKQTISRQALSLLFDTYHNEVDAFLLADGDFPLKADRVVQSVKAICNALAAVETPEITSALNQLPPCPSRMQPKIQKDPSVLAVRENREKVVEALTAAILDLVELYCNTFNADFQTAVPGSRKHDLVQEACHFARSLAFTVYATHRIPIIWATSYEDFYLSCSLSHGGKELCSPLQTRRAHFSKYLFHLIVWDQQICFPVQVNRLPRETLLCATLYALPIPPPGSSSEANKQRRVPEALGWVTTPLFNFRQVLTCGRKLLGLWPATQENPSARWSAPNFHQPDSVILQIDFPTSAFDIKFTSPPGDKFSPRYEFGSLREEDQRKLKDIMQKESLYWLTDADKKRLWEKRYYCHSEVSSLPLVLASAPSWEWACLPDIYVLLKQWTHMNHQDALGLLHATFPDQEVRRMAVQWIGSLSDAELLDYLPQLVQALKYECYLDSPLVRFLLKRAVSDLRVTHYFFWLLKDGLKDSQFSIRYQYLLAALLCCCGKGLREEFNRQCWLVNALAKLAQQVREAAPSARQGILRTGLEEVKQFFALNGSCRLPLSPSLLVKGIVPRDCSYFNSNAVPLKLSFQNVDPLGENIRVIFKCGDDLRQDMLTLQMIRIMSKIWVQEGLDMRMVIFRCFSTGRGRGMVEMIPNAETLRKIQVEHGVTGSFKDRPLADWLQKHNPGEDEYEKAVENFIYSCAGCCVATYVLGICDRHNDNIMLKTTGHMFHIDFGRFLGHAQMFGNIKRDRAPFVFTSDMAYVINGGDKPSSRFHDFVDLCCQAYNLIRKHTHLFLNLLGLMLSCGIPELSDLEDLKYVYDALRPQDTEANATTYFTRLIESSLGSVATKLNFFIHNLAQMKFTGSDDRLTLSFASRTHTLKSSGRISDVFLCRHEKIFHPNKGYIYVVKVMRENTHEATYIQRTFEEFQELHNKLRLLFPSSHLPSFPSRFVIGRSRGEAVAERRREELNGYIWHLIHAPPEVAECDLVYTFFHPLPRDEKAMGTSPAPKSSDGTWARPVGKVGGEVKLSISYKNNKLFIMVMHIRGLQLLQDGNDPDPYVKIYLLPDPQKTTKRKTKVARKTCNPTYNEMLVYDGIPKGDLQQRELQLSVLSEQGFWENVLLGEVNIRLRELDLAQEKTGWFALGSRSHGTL
Sequence of Serine/threonine-protein kinase 4 (Homo sapiens) (Q13043 whole entry): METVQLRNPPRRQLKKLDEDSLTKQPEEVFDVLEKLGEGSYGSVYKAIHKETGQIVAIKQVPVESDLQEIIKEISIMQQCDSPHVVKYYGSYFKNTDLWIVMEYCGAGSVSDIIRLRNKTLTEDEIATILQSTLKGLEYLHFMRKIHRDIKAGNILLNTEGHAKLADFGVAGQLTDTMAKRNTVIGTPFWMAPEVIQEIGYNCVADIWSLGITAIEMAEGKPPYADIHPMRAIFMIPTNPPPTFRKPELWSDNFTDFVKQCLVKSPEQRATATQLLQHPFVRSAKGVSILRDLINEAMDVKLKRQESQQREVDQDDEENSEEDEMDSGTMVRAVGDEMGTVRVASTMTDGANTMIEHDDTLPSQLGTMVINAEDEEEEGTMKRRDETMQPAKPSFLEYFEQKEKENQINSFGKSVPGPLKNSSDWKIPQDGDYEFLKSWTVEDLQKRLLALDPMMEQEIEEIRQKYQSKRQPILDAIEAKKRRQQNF
Sequence of Serine/threonine-protein kinase PAK 1 (Homo sapiens) (Q13153 whole entry): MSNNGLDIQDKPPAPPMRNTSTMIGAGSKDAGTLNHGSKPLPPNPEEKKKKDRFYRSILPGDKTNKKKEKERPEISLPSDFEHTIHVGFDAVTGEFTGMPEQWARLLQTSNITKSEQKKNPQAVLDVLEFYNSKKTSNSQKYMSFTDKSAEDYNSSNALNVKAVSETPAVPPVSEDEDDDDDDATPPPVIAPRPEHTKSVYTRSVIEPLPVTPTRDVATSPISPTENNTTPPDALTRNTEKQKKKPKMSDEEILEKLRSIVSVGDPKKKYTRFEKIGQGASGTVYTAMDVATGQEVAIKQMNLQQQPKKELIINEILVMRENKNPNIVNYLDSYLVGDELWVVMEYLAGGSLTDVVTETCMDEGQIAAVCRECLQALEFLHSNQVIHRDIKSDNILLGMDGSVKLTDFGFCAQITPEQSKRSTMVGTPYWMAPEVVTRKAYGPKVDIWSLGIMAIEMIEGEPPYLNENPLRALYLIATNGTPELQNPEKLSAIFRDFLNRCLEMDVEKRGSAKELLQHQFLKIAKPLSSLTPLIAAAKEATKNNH
Sequence of Cyclin-dependent kinase 14 (Homo sapiens) (O94921 whole entry): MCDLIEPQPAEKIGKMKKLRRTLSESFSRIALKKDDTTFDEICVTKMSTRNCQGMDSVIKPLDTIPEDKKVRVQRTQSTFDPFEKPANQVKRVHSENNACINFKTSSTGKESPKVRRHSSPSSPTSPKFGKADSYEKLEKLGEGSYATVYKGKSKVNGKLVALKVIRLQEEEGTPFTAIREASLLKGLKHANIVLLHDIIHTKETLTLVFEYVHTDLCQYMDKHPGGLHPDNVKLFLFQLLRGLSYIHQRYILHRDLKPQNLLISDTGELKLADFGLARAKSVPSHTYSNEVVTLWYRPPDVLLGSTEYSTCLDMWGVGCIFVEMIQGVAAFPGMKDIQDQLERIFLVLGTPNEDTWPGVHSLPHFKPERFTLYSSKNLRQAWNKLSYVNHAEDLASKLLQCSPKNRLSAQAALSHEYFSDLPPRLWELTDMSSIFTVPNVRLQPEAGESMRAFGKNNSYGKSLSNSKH
Sequence of Phosphatidylinositol 4-phosphate 5-kinase type-1 alpha (Homo sapiens) (Q99755 whole entry): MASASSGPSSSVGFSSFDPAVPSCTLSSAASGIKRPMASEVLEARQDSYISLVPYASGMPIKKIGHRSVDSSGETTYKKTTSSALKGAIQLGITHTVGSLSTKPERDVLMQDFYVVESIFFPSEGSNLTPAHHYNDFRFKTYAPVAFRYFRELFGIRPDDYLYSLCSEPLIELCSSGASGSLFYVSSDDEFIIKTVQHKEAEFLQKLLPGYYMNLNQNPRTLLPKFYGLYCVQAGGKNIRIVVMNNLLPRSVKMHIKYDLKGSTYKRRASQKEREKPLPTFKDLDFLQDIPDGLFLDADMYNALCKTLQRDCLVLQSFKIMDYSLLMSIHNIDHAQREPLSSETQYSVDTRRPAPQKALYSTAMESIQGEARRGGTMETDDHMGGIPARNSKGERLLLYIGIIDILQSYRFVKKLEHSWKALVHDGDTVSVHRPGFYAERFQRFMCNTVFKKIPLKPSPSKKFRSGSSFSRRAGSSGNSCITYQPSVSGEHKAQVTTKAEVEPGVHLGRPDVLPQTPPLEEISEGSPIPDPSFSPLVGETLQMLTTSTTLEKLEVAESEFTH

Row | Structure (SMILES) | residual activity [1] [%] | residual activity [2] [%] | residual activity [3] [%] | residual activity [4] [%] | residual activity [5] [%] | residual activity [6] [%] | residual activity [7] [%] | residual activity [8] [%] | residual activity [9] [%] | residual activity [10] [%] | residual activity [11] [%] | residual activity [12] [%] | residual activity [13] [%] | residual activity [14] [%] | residual activity [15] [%] | residual activity [16] [%] | residual activity [17] [%] | residual activity [18] [%] | residual activity [19] [%] | residual activity [20] [%] | other results
1 | CNCc1ccccc1-c1csc([C@H](C)Nc2nc(C)nc3cc(OC)c(OC)cc23)c1 [BAY-294] | 97 | 100 | 100 | 63 | 92 | 100 | 64 | 95 | 100 | 100 | 83 | 100 | 90 | 98 | 91 | 78 | 99 | 100 | 100 | 100 | residual activity [21]: 100%; residual activity [22]: 100%; residual activity [23]: 100%; residual activity [24]: 93%; residual activity [25]: 100%; residual activity [26]: 98%; residual activity [27]: 79%; inhibition [28]: 56.2%; inhibition [29]: 83.4%
2 | CNCc1ccccc1-c1csc([C@@H](C)Nc2nc(C)nc3cc(OC)c(OC)cc23)c1 [BAY-293] | 100 | 100 | 100 | 67 | 75 | 100 | 50 | 98 | 87 | 90 | 83 | 100 | 93 | 90 | 81 | 74 | 97 | 100 | 86 | 97 | residual activity [21]: 100%; residual activity [22]: 92%; residual activity [23]: 94%; residual activity [24]: 85%; residual activity [25]: 100%; residual activity [26]: 97%; residual activity [27]: 57%; inhibition [28]: 47.4%; inhibition [29]: 71.6%

Reference: ChEMBL document CHEMBL4507273 (2021)
